According to PubChem BioAssay AID504875 (The Scripps Research Institute Molecular Screening Center, 2011):
Calls of active or inactive are those of the source. The rule behind the calls is not given here.

System: cell viability, ATP luminescence (cytotoxicity counter-screen)
Assay: cell viability after agonist treatment – luminescence, dose response, set 2, assay provider, cytotoxicity control for S1P4 agonist project, late-stage follow-up (AID 504875)

For COCCN=C1S/C(=C\c2cc(C)n(-c3ccc(F)cc3F)c2C)C(=O)N1C, the CC50 was > 10 µM (inactive).
